# Data taken from PubChem BioAssay AID504739 (National Center for Advancing Translational Sciences (NCATS), 2011).
# Tested on: mouse liver microsomes, LC-MS/MS, half-life
# Test: Inhibitors of Bloom's syndrome helicase: Metabolic Stability Profiling
# Details: at 1 µM; hits give high values
# Excerpt: Survival of cells and the faithful propagation of the genome depend on elaborate mechanisms of detecting and repairing DNA damage. Treatment of advanced cancer relies on radiation therapy or chemotherapy, which kill cancer cells by causing extensive DNA damage. It is often found, that cancer cells develop resistance to therapy through enhanced activity of DNA repair functions; this has led to an increased interest in developing drugs that interfere with DNA repair, which could sensitize cancer cells to conventional therapy. Bloom syndrome helicase (BLM), is important in resolving abnormal DNA structures formed during replication or homologous recombination. Shutting down the expression of BLM leads to chromosomal instability and higher radiation sensitivity in cultured cells. After the completion of a qHTS campaign, secondary assays, and rounds of medicinal chemistry, a compound was identified to be further characterized through in vitro ADME assays. Mouse liver microsomes are created through broken up endoplasmic reticulum from mouse liver. These liver microsomes contain many drug metabolizing enzymes, such as Cytochome P-450s and flavin-containing monooxygenases. Because metabolism is major way of drug clearance, this is an important result. […]
# 1uM of compound in incubated in mouse liver microsome; the reference compound is ketanserin. […] Samples are analyzed with LC-MS/MS.
smiles,measurement,value
O=C(Nc1ccc(F)c(C(F)(F)F)c1)Nc1nnc(-c2ccncc2)s1,half-life,2 h
